In patent publication US5223637A, “KS-506 compounds” (Kyowa Hakko Kogyo Co., Ltd., priority 1988, dated 1993):
≈ marks a conversion by molar mass, not a printed value. Counter-ions that a name gives are not always drawn.

How the values were obtained:
[1] = system: PDE preparation partially purified from bovine cerebral cortex; test: PDE-inhibiting activity (Experimental Example 1); type: biochemical; details: 1.2 mM cAMP, 4 U/ml calmodulin, 50 μM calcium chloride, pH 6.9, 30° C., 30 minutes
Procedure: Methanol solutions of the test compounds at various concentrations (50 μl each) were respectively added to 500 μl of a reaction mixture comprising 80 mM imidazole-hydrochloride buffer (pH 6.9), 3 mM magnesium sulfate, 0.3 mM dithiothreitol, 100 mM sodium chloride, 50 μM calcium chloride, 1.2 mM cAMP, 4 U/ml calmodulin (1U is defined as the amount which activates 50% of the maximum activity of PDE under the conditions) and 26 mU/ml PDE (1U is defined as the amount which hydrolyzes 1 μmol of cAMP in one minute), and reaction was allowed to proceed at 30° C. for 30 minutes.
The reaction was discontinued by heating at 100° C. for 5 minutes. Then, 6 μmol of manganese chloride and 0.2 U of 5'-nucleotidase (1U is defined as the amount which forms 1 μmol of phosphoric acid in one minute) were added to the reaction mixture, and reaction was allowed to proceed at 30° C. for 30 minutes. […] Inhibition rate was calculated in accordance with the following equation:
Inhibition rate=(A-B)/A×100 (%)
A: Amount of the inorganic phosphoric acid formed in the absence of a test compound
B: Amount of the inorganic phosphoric acid formed in the presence of a test compound

Solubility = type: physicochemical; details: for Solubility (solvents in which insoluble): hexane and water; for Solubility (solvents in which soluble): organic solvents as listed
[2] = system: Rat Peritoneal Exudate Cells; test: Effect on Histamine Release from Rat Peritoneal Exudate Cells (Experimental Example 2); type: cell-based; details: phosphatidyl-L-serine and concanavalin A stimulation; for IC50: 37° C., read-out: IC50 (concentration of a test compound which inhibits histamine release by 50%)
Procedure: Effect on Histamine Release from Rat Peritoneal Exudate Cells
1) Preparation of Suspension of Rat Abdominal Cavity Cells and Effect on Histamine Release
Rats weighing from 350 to 450 g were sacrificed by exsanguination under dry ether anesthesia, and a medium for mast cells (composition : 150 mM NaCl, 3.7 mM KCl, 3 mM Na2 HPO4, 3.5 mM KH2 PO4, 1 mM CaCl2, 5.6 mM glucose, 0.1% bovine serum albumin and 10 U/ml heparin) prepared according to the method of Sullivan, et al. [J. Immunol. 114, 1473 (1973)] was intraperitoneally injected into the animals in an amount of 15 ml/animal. After massage of the abdominal parts for 2 minutes, the animals were subjected to celiotomy to sample exudate in the abdominal cavities. The collected exudate was subjected to centrifugation at 100 xg at 4° C. for 5 minutes, and the precipitate was mixed with an appropriate amount of the ice-cooled medium for mast cells mentioned above to prepare a suspension. Then, the centrifugation and the addition of the medium were repeated three times to prepare a cell suspension wherein the final concentration of the mast cells was about 2×10^5 cells/ml. Identification of the mast cells was carried out by staining intracellular granules with 0.05% Toluidine Blue.
One milliliter portions of the thus obtained cell suspension were preincubated at 37° C. for 5 minutes, and then respectively mixed with 0.1 ml each of test compound solutions having various concentrations,followed by incubation for 5 minutes. The incubated mixtures were further mixed with 0.1 ml each of 10 μg/ml phosphatidyl-L-serine and concanavalin A, and then incubated for 15 minutes.
Spontaneous histamine release was determined under similar incubation conditions except that physiological saline was used in place of phosphatidyl-L-serine and concanavalin A.
The reaction was stopped by addition of 3 ml of ice-cooled physiological saline, and the cell suspension was subjected to centrifugation at 1100 xg at 4° C. for 10 minutes to obtain a supernatant and a residue. Histamine contents of the supernatant and the residue were measured by the fluorescence method according to the method of Komatsu [Allergy 27, 67 (1978)]. Histamine release rate was indicated as the percentage of the histamine content of the supernatant to the total histamine content of the cells. The rate of inhibition of histamine release by the test compound solution was calculated according to the following equation: [formula]

| SMILES | IC50 (concentration of a test compound inhibiting 50% of the PDE activity) [1] [µg/mL] | Solubility (solvents in which insoluble) (Solubility) | Solubility (solvents in which soluble) (Solubility) | also measured |
| --- | --- | --- | --- | --- |
| Cc1c(C)c(C(=O)Oc2c(C)c(O)c(C)c(C)c2C(=O)SSC(=O)c2c(C)c(C)c(O)c(C)c2OC(=O)c2c(C)c(C)c(O)c(C)c2O)c(O)c(C)c1O [KS-506a] | 1.22 | insoluble in hexane and water | soluble in methanol, ethanol, acetone, ethyl acetate, acetonitrile, dimethylsulfoxide and chloroform | – |
| Cc1c(C)c(C(=O)Oc2c(C)c(O)c(C)c(C)c2SSc2c(C)c(C)c(O)c(C)c2OC(=O)c2c(C)c(C)c(O)c(C)c2O)c(O)c(C)c1O [KS-506g] | 0.080 | insoluble in hexane and water | soluble in methanol, ethanol, acetone, ethyl acetate, acetonitrile, dimethylsulfoxide and chloroform | – |
| COc1ccc(Cc2nccc3cc(OC)c(OC)cc23)cc1OC [Papaverine hydrochloride, reference compound] | 60 | – | – | – |

Now from value to compound, other results behind:

| IC50 (concentration of a test compound inhibiting 50% of the PDE activity) [1] [µg/mL] | Solubility (solvents in which insoluble) (Solubility) | SMILES | Solubility (solvents in which soluble) (Solubility) | also measured |
| --- | --- | --- | --- | --- |
| 0.28 | insoluble in hexane and water | Cc1c(C)c(C(=O)Oc2c(C)c(O)c(C)c(C)c2SSC(=O)c2c(C)c(C)c(O)c(C)c2OC(=O)c2c(C)c(C)c(O)c(C)c2O)c(O)c(C)c1O [KS-506x] | soluble in methanol, ethanol, acetone, ethyl acetate, acetonitrile, dimethylsulfoxide and chloroform | – |
| – | insoluble in hexane and water | CC(=O)CCSC(=O)c1c(C)c(C)c(O)c(C)c1OC(=O)c1c(C)c(C)c(O)c(C)c1O [KS-506m] | soluble in methanol, acetone, ethyl acetate, acetonitrile and dimethylsulfoxide | inhibition at 0.5 µg/mL ([2]; concentration of test compound 0.5 μg/ml, read-out: Release inhibition rate): 27.9%; inhibition at 1.5 µg/mL ([2]; concentration of test compound 1.5 μg/ml, read-out: Release inhibition rate): 58.4%; inhibition at 5 µg/mL ([2]; concentration of test compound 5.0 μg/ml, read-out: Release inhibition rate): 83.3%; IC50 [2]: 1.2 µg/mL (≈ 2.61 µM) |
| – | insoluble in hexane and water | COC(=O)c1c(C)c(C)c(O)c(C)c1OC(=O)c1c(C)c(C)c(O)c(C)c1O [KS-506h] | soluble in methanol, acetone, ethyl acetate, acetonitrile and dimethylsulfoxide | inhibition at 3 µg/mL ([2]; concentration of test compound 3.0 μg/ml, read-out: Release inhibition rate): 13.9%; inhibition at 10 µg/mL ([2]; concentration of test compound 10.0 μg/ml, read-out: Release inhibition rate): 59.9%; IC50 [2]: 8.2 µg/mL (≈ 21.1 µM) |
| 20 | – | COc1c(O)cc2cc(C)oc(=O)c2c1O [Reticurol, reference compound] | – | – |
